Test results: patent US8076486B2, “Heteroaryl-substituted arylaminopyridine derivatives as MEK inhibitors” (Merck Serono S.A., priority 2006, dated 2011)

Key:
human MEK1 = human MEK1 (Homo sapiens, UniProt Q02750, S218E/S222E); test: MEK-1 Enzyme Assay (LANCE-HTRF); assay type: biochemical; conditions: MEK-1 EE, ERK-2K52A substrate, 9 uM ATP, 1.5 hrs
Procedure: Assay 1: MEK-1 Enzyme Assay (LANCE-HTRF)
Inhibition of human MEK1 kinase activity was monitored with a homogenous, fluorescence-based assay. The assay uses time resolved fluorescence resonance energy transfer to probe for phosphorylation of ERK1 by MEK1. The detailed procedure is described in the following:
Constititutively active MEK-1 EE (150 ng/well) and ERK-2K52A (110 ng/well) were incubated in black, 384 well Optiplates (Perkin Elmer) for 1.5 hrs at room temperature, in the presence of increasing concentrations of inhibitors. The total reaction volume was 50 ul. The inhibitors were serial diluted in kinase buffer (9 uM ATP, 50 mM Tris-Hcl pH 8.0, 10 mM MgCl2, 1 mM DTT and 100 uM Na3VO4), to a final concentration of 1% DMSO. At the end of the incubation, the enzyme reaction was quenched by adding 50 ul of assay buffer containing 50 mM Tris-Hcl, 50 mM EDTA, 0.1% BSA and a mixture of 1.25 ug/mL europium labeled anti-phosphotyrosine mAb (Perkin Elmer) and 5 ug/mL of allophycocyanin labeled anti-GST antibody (CIS-US). Plates were agitated on a plate shaker for 30 minutes and the phosphorylation of the ERK-2K52A substrate was measured by homogeneous time resolved fluorescence (HTRF) at 340 nm excitation and […] emission filters on the VICTOR V fluorescence plate reader. Phosphorylation is expressed as a ratio of 665 nM signal×10,000/615 nM signal. To assess the inhibitory potential of the compounds, IC50-values were determined.

Murine colon C26 cells = test: Tumor Cell Proliferation Assay (ATP Lite), C26; assay type: cell-based; conditions: Mus musculus, 96 h, 4 days, ATPlite
Procedure: (§1) Assay 2: Tumor Cell Proliferation Assays (ATP Lite)
(§2) Murine colon C26 (1500 cells/well), human melanoma A375 (2000 cells/well), or human pancreatic MiaPaCa-2 cells (2000 cells/well) were plated in white, 96 well plates (Corning) in growth media (DMEM with 10% fetal bovine serum, 2 mM glutamine for C26 and MiaPaCa-2, and RPMI with 10% fetal bovine serum, 2 mM glutamine for A375) and cultured overnight at 37° C. in a humidified, 5% CO2 incubator. Inhibitors were serially diluted in 100% DMSO and subsequently added to the cells, in growth media, to reach a final concentration of 0.25% DMSO. The cells were incubated for 4 days in the presence of the test compounds and the proliferation was quantitated using the ATPlite cell proliferation kit (Packard).

[1] = tested on: human melanoma A375 cells; test: Tumor Cell Proliferation Assay (ATP Lite), A375; assay type: cell-based; conditions: A-375, 96 h, 4 days, ATPlite
Procedure: as §1, §2

[2] = tested on: human pancreatic MiaPaCa-2 cells; test: Tumor Cell Proliferation Assay (ATP Lite), MiaPaCa-2; assay type: cell-based; conditions: MIA PaCa-2, 96 h, 4 days, ATPlite, read-out: MiaPaCa2 cell proliferation IC50
Procedure: as §1, §2

Chain of human MEK1 (Q02750 whole entry S218E/S222E): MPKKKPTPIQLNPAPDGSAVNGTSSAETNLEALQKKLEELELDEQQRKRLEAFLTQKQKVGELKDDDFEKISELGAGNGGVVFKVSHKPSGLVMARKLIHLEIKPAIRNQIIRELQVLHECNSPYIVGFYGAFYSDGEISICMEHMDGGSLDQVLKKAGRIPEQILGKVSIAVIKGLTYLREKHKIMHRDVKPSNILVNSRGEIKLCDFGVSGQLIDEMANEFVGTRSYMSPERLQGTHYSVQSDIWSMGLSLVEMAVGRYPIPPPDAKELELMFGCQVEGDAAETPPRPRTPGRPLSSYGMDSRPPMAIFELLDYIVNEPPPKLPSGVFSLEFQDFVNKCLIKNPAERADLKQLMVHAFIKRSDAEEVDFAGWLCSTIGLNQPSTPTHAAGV

Row | Compound | IC50 (human MEK1) [nM] | IC50 (Murine colon C26 cells) [nM] | IC50 [1] [nM] | IC50 [2] [nM]
1 | Fc1cc(I)ccc1Nc1cnccc1-c1nnn[nH]1 [Example 62, N-(2-fluoro-4-iodophenyl)-4-(1H-tetrazol-5-yl)pyridin-3-amine] | ≤ 3000 | > 25000 | > 25000 | > 25000
2 | Cc1cc(I)ccc1Nc1cnccc1-c1nnc(N)[nH]1 [Example 33, [4-(5-Amino-4H-[1,2,4]triazol-3-yl)-pyridin-3-yl]-(4-iodo-2-methyl-phenyl)-amine] | ≤ 3000 | ≤ 3000 | ≤ 3000 | ≤ 3000
3 | Nc1nnc(-c2ccncc2Nc2ccc(Br)cc2Cl)o1 [Example 35, [4-(5-Amino-[1,3,4]oxadiazol-2-yl)-pyridin-3-yl]-(4-bromo-2-chloro-phenyl)-amine] | ≤ 3000 | ≤ 3000 | ≤ 3000 | ≤ 3000
4 | Fc1cc(I)ccc1Nc1cnccc1C1NNC(=S)N1CCN1CCOCC1 (stereo not shown) [Example 9, 5-[3-(2-Fluoro-4-iodo-phenylamino)-pyridin-4-yl]-4-(2-morpholin-4-yl-ethyl)-[1,2,4]triazolidine-3-thione] | 3000 to 25000 | ≤ 3000 | ≤ 3000 | ≤ 3000
5 | Cc1cc(I)ccc1Nc1cnccc1-c1nnc(N)o1 [Example 29, [4-(5-Amino-[1,3,4]oxadiazol-2-yl)-pyridin-3-yl]-(4-iodo-2-methyl-phenyl)-amine] | ≤ 3000 | ≤ 3000 | ≤ 3000 | ≤ 3000
6 | COC(=O)CNc1nnc(-c2ccncc2Nc2ccc(I)cc2F)o1 [Example 43, {5-[3-(2-Fluoro-4-iodo-phenylamino)-pyridin-4-yl]-[1,3,4]oxadiazol-2-ylamino}-acetic acid methyl ester] | ≤ 3000 | ≤ 3000 | ≤ 3000 | 3000 to 25000
7 | Fc1cc(I)ccc1Nc1cnccc1-c1nnc(NCC2CCCO2)s1 (stereo not shown) [Example 50, (2-Fluoro-4-iodo-phenyl)-(4-{5-[(tetrahydro-furan-2-ylmethyl)-amino]-[1,3,4]thiadiazol-2-yl}-pyridin-3-yl)-amine] | ≤ 3000 | ≤ 3000 | ≤ 3000 | ≤ 3000
8 | CCOc1nnc(-c2ccncc2Nc2ccc(I)cc2F)[nH]1 [Example 30, [4-(5-Ethoxy-4H-[1,2,4]triazol-3-yl)-pyridin-3-yl]-(2-fluoro-4-iodo-phenyl)-amine] | ≤ 3000 | – | – | –
9 | CCOC(=O)CNC(=O)Nc1nnc(-c2ccncc2Nc2ccc(I)cc2F)o1 [Example 17, (3-{5-[3-(2-Fluoro-4-iodo-phenylamino)-pyridin-4-yl]-[1,3,4]oxadiazol-2-yl}-ureido)-acetic acid ethylester] | ≤ 3000 | > 25000 | 3000 to 25000 | 3000 to 25000
10 | Fc1cc(I)ccc1Nc1cncc(-c2ccccc2F)c1-c1c[nH]nn1 [Example 60, (2-Fluoro-4-iodo-phenyl)-[5-(2-fluoro-phenyl)-4-(1H-[1,2,3]triazol-4-yl)-pyridin-3-yl]-amine] | ≤ 3000 | ≤ 3000 | ≤ 3000 | ≤ 3000
11 | Fc1cc(I)ccc1Nc1cnccc1-c1cn[nH]c1 [Example 65, (2-Fluoro-4-iodo-phenyl)-[4-(1H-pyrazol-4-yl)-pyridin-3-yl]-amine] | ≤ 3000 | ≤ 3000 | ≤ 3000 | ≤ 3000
12 | Fc1cc(I)ccc1Nc1cnccc1-c1nnc(N2CCOCC2)o1 [Example 6, (2-Fluoro-4-iodo-phenyl)-[4-(5-morpholin-4-yl-[1,3,4]oxadiazol-2-yl)-pyridin-3-yl]-amine] | ≤ 3000 | ≤ 3000 | ≤ 3000 | ≤ 3000
13 | Nc1nnc(-c2c(Nc3ccc(I)cc3F)cncc2-c2ccccc2Cl)o1 [Example 57, [4-(5-Amino-[1,3,4]oxadiazol-2-yl)-5-(2-chloro-phenyl)-pyridin-3-yl]-(2-fluoro-4-iodo-phenyl)-amine] | ≤ 3000 | ≤ 3000 | ≤ 3000 | ≤ 3000
14 | Cc1nnc(-c2ccncc2Nc2ccc(I)cc2F)o1 [Example 13, (2-Fluoro-4-iodo-phenyl)-[4-(5-methyl-[1,3,4]oxadiazol-2-yl)-pyridin-3-yl]-amine] | ≤ 3000 | ≤ 3000 | ≤ 3000 | ≤ 3000
15 | C[Si](C)(C)c1[nH]nnc1-c1ccncc1Nc1ccc(I)cc1F [Example 63, N-(2-fluoro-4-iodophenyl)-4-[5-(trimethylsilyl)-1H-1,2,3-triazol-4-yl]pyridin-3-amine] | ≤ 3000 | ≤ 3000 | ≤ 3000 | ≤ 3000
16 | O=c1[nH]nc(-c2ccncc2Nc2ccc(I)cc2F)o1 [Example 1, 5-[3-(2-Fluoro-4-iodo-phenylamino)-pyridin-4-yl]-3H-[1,3,4]oxadiazol-2-one] | ≤ 3000 | 3000 to 25000 | ≤ 3000 | 3000 to 25000
17 | Fc1cc(I)ccc1Nc1cnccc1-c1nnc(NCCN2CCOCC2)o1 [Example 20, (2-Fluoro-4-iodo-phenyl)-{4-[5-(2-morpholin-4-yl-ethylamino)-[1,3,4]oxadiazol-2-yl]-pyridin-3-yl}-amine] | ≤ 3000 | ≤ 3000 | ≤ 3000 | ≤ 3000
18 | Fc1cc(I)ccc1Nc1cnccc1-c1nnc(NCC2CCCO2)o1 (stereo not shown) [Example 49, (2-Fluoro-4-iodo-phenyl)-(4-{5-[(tetrahydro-furan-2-ylmethyl)-amino]-[1,3,4]oxadiazol-2-yl}-pyridin-3-yl)-amine] | ≤ 3000 | ≤ 3000 | ≤ 3000 | ≤ 3000
19 | Fc1cc(I)ccc1Nc1cnccc1-c1c[nH]nn1 [Example 64, N-(2-fluoro-4-iodophenyl)-4-(1H-1,2,3-triazol-4-yl)pyridin-3-amine] | ≤ 3000 | ≤ 3000 | ≤ 3000 | ≤ 3000
20 | Nc1nnc(-c2c(F)cncc2Nc2ccc(I)cc2F)o1 [Example 48, [4-(5-Amino-[1,3,4]oxadiazol-2-yl)-5-fluoro-pyridin-3-yl]-(2-fluoro-4-iodo-phenyl)-amine] | ≤ 3000 | ≤ 3000 | ≤ 3000 | ≤ 3000
21 | C#Cc1cc(-c2nnc(N)o2)c(Nc2ccc(I)cc2F)cn1 [Example 28, [4-(5-Amino-[1,3,4]oxadiazol-2-yl)-6-ethynyl-pyridin-3-yl]-(2-fluoro-4-iodo-phenyl)-amine] | ≤ 3000 | – | – | –
22 | Nc1nnc(-c2cc[n+]([O-])cc2Nc2ccc(I)cc2F)o1 [Example 27, [4-(5-Amino-[1,3,4]oxadiazol-2-yl)-1-oxy-pyridin-3-yl]-(2-fluoro-4-iodo-phenyl)-amine] | ≤ 3000 | ≤ 3000 | ≤ 3000 | ≤ 3000
23 | CCOC(=O)Nc1nnc(-c2ccncc2Nc2ccc(I)cc2F)o1 [Example 26, {5-[3-(2-Fluoro-4-iodo-phenylamino)-pyridin-4-yl]-[1,3,4]oxadiazol-2-yl}-carbamic acid ethyl ester] | ≤ 3000 | ≤ 3000 | ≤ 3000 | ≤ 3000
24 | Fc1cc(I)ccc1Nc1cnccc1-c1ccn[nH]1 [Example 61, (2-Fluoro-4-iodo-phenyl)-[4-(2H-pyrazol-3-yl)-pyridin-3-yl]-amine] | ≤ 3000 | 3000 to 25000 | ≤ 3000 | ≤ 3000
25 | Fc1cc(I)ccc1Nc1cnccc1-c1n[nH]c(=S)o1 [Example 3, 5-[3-(2-Fluoro-4-iodo-phenylamino)-pyridin-4-yl]-3H-[1,3,4]oxadiazole-2-thione] | ≤ 3000 | 3000 to 25000 | ≤ 3000 | ≤ 3000
26 | O=c1[nH]nc(-c2ccncc2Nc2ccc(I)cc2F)[nH]1 [Example 4, 5-[3-(2-Fluoro-4-iodo-phenylamino)-pyridin-4-yl]-2,4-dihydro-[1,2,4]triazol-3-one] | ≤ 3000 | ≤ 3000 | ≤ 3000 | ≤ 3000
27 | Cc1noc(C)c1-c1ccncc1Nc1ccc(I)cc1F [Example 66] | ≤ 3000 | – | – | –
28 | CCOC(=O)c1noc(-c2ccncc2Nc2ccc(I)cc2F)n1 [Example 36, 5-[3-(2-Fluoro-4-iodo-phenylamino)-pyridin-4-yl]-[1,2,4]oxadiazole-3-carboxylic acid ethyl ester] | ≤ 3000 | – | – | –
